Results as given in ChEMBL document CHEMBL1811854, “Phenolic compounds from the roots of Jordanian viper's grass, Scorzonera judaica” (J Nat Prod, 2011).

How the values were obtained:
Type in all cases: functional, cell-based
HeLa = assay: Cytotoxicity against human HeLa cells by MTT assay
Jurkat = assay: Cytotoxicity against human Jurkat cells by MTT assay
MCF7 = assay: Cytotoxicity against human MCF7 cells by MTT assay

Measured: IC50

O=C(Cc1cccc(O)c1C(=O)O)c1ccc(O)c(O)c1
> 100 µM: all assays above

C[C@@H]1O[C@@H](O[C@@H]2[C@@H](O)[C@H](Oc3ccc([C@@H]4Cc5cccc(O)c5C(=O)O4)cc3)O[C@H](CO)[C@H]2O)[C@H](O)[C@H](O)[C@H]1O
> 100 µM: all assays above

O=C1OC(c2ccc(O)c(O)c2)C/C1=C\c1ccc(O)c(O)c1 (configuration not stated)
> 100 µM: all assays above

O=C1OC(c2ccc(O)c(O)c2)=C/C1=C/c1ccc(O)c(O)c1
> 100 µM: all assays above

COc1cc(C(=O)Cc2cccc(O)c2C(=O)O)cc(O)c1O
> 100 µM: all assays above

COc1cc([C@H]2O[C@H](O[C@@H]3O[C@H](CO)[C@@H](O)[C@H](O)[C@H]3O)[C@H]3[C@H]2CO[C@H]3c2ccc(O)c(OC)c2)ccc1O
> 100 µM: all assays above

O=C1O/C(=C\c2ccc(O)c(O)c2)c2cccc(O[C@@H]3O[C@H](CO)[C@@H](O)[C@H](O)[C@H]3O)c21
> 100 µM: all assays above

O=C(Cc1cccc(O)c1C(=O)O)c1ccc(O)cc1
> 100 µM: all assays above

O=C(O)c1c(O)cccc1/C=C/c1ccc(O[C@@H]2O[C@H](CO)[C@@H](O)[C@H](O)[C@H]2O)cc1
> 100 µM: all assays above
